Measurements reported in the supplement of paper PMC10307832.

Legend:
Assay in all cases: relative viability (nuclei count vs DMSO), 5 days (fraction); higher = more cells survive
Crizotinib + Decitabine = compound: C[C@@H](Oc1cc(-c2cnn(C3CCNCC3)c2)cnc1N)c1c(Cl)ccc(F)c1Cl [Crizotinib] + Nc1ncn([C@H]2C[C@H](O)[C@@H](CO)O2)c(=O)n1 [Decitabine] (partner 2 µM)
In short: (§1)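 Values are medians from duplicate plates. Each reflects relative viability, defined as the nuclei count of treated wells over that of vehicle wells. Lung cancer cell lines in 1536-well plates were pin-tool dosed one day after seeding with one drug alone or with a fixed anchor-drug dose plus five library-drug doses (not always all listed) in √10 steps, then fixed, stained and imaged at 4× after 5 days.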

Crizotinib + Linsitinib = compound: C[C@@H](Oc1cc(-c2cnn(C3CCNCC3)c2)cnc1N)c1c(Cl)ccc(F)c1Cl [Crizotinib] + C[C@]1(O)C[C@@H](c2nc(-c3ccc4ccc(-c5ccccc5)nc4c3)c3c(N)nccn32)C1 [Linsitinib] (partner 1 µM)
In short: as §1

Carfilzomib + Linsitinib = compound: CC(C)C[C@H](NC(=O)[C@H](CCc1ccccc1)NC(=O)CN1CCOCC1)C(=O)N[C@@H](Cc1ccccc1)C(=O)N[C@@H](CC(C)C)C(=O)[C@@]1(C)CO1 [Carfilzomib] + C[C@]1(O)C[C@@H](c2nc(-c3ccc4ccc(-c5ccccc5)nc4c3)c3c(N)nccn32)C1 [Linsitinib] (partner 1 µM)
In short: as §1

Olaparib + Alpelisib = compound: O=C(c1cc(Cc2n[nH]c(=O)c3ccccc23)ccc1F)N1CCN(C(=O)C2CC2)CC1 [Olaparib] + Cc1nc(NC(=O)N2CCC[C@H]2C(N)=O)sc1-c1ccnc(C(C)(C)C(F)(F)F)c1 [Alpelisib] (partner 2 µM)
In short: as §1

Cell Line	relative viability (Crizotinib + Decitabine; first compound 0.01 µM)	relative viability (Crizotinib + Decitabine; first compound 0.03162 µM)	relative viability (Crizotinib + Decitabine; first compound 0.1 µM)	relative viability (Crizotinib + Decitabine; first compound 0.3162 µM)	relative viability (Crizotinib + Decitabine; first compound 1 µM)	relative viability (Crizotinib + Linsitinib; first compound 0.01 µM)	relative viability (Crizotinib + Linsitinib; first compound 0.03162 µM)	relative viability (Crizotinib + Linsitinib; first compound 0.1 µM)	relative viability (Crizotinib + Linsitinib; first compound 0.3162 µM)	relative viability (Crizotinib + Linsitinib; first compound 1 µM)	relative viability (Carfilzomib + Linsitinib; first compound 0.001 µM)	relative viability (Carfilzomib + Linsitinib; first compound 0.003162 µM)	relative viability (Carfilzomib + Linsitinib; first compound 0.01 µM)	relative viability (Carfilzomib + Linsitinib; first compound 0.03162 µM)	relative viability (Carfilzomib + Linsitinib; first compound 0.1 µM)	relative viability (Olaparib + Alpelisib; first compound 0.08 µM)	relative viability (Olaparib + Alpelisib; first compound 0.253 µM)	relative viability (Olaparib + Alpelisib; first compound 2.53 µM)	relative viability (Olaparib + Alpelisib; first compound 8 µM)
H3255	0.701	0.576	0.616	0.558	0.653	0.806	0.924	0.974	0.841	0.962	0.942	1.06	0.995	0.739	0.373	0.751	0.752	0.652	0.647
NCI-H1355	0.348	0.344	0.392	0.338	0.346	0.869	0.82	0.811	0.799	0.867	0.795	0.915	0.794	0.487	0.14	0.804	0.716	0.825	0.798
UMC-11	0.694	0.593	0.521		0.643		1.04		1.16	0.96	0.981	1.03	1.01	0.949	0.224	1.08	0.877	0.825	0.409
NCI-H1395	0.661	0.688	0.743	0.791	0.732	1.07	1.17	0.944	1.01	1.03	1.28	1.16	0.795	1.4	0.307	1	0.748	0.662	0.504
EMC-BAC-2	0.96	0.921	1.01		0.967	0.758	0.834	0.809	0.798	0.81	0.78	0.786	0.844	0.836	0.401	0.737	0.751	0.636	0.621
HCC-44	0.959	0.943		0.844	0.915	0.646	0.721	0.595	0.704	0.719	0.592	0.75	0.673	0.487	0.174	0.89	0.721	0.914	0.839
PC-3 [JPC-3]	0.794	0.809	0.839		0.865	0.935	0.977	1.04	0.9	0.973	1	0.881	1	0.86	0.466	1.01	1.01	1.01	0.989
NCI-H1734	0.466	0.5	0.493		0.493	0.888	0.843	0.851		0.82	0.871	0.986	0.855	0.715	0.205	0.669	0.612	0.623	0.519
HOP-62	0.174	0.22	0.23	0.197	0.202	0.81	0.946	1.1	0.956	0.816	0.991	0.992	0.924	0.133	0.0627	1.25	0.774	0.754	0.782
HARA	0.489	0.524	0.514	0.4	0.531	0.919	0.978	0.778	0.976	0.873	0.89	1.03	1.07	0.0722	0.0537	0.935	0.728	0.959	0.76
NCI-H2023	0.186	0.236	0.272	0.202	0.255	0.734	0.592	0.6	0.486	0.515	0.6	0.768	0.653	0.607	0.0783	0.64	0.512	0.58	0.501
NCI-H1993	0.515	0.525	0.608	0.606	0.602	0.711	0.729	0.71	0.76	0.71	0.758	0.773	0.712	0.607	0.563	0.691	0.657	0.746	0.742
NCI-H460	0.451	0.511	0.476	0.645	0.452	0.736	0.84	0.718	0.847		0.759	0.891	0.719	0.0155	0.0133	0.62	0.38	0.238	0.173
NCI-H596		0.993	1.01	1.08	1.11	0.971	1.16	1.07	1.19	1.15	1.11	1.03	1.16	0.628	0.449	0.532	0.452	0.551	0.41
NCI-H441	0.242	0.238	0.248	0.23	0.244	0.564	0.498	0.575	0.382	0.551	0.569	0.451	0.233	0.104	0.115		0.541	0.568	0.487
COR-L 105	0.583	0.675	0.658	0.629	0.713	1.14	1	0.929	0.956	0.972	0.937	1.05	0.879	0.297	0.249	1.17	1.02	0.87	0.639
NCI-H322M		0.713	0.687	0.721	0.713	0.811	0.954	1	0.96	0.903	0.806	0.929	0.913	0.99	0.489	0.893	0.789	0.911	0.709
